Entries after “also recorded” stand apart in the source; their conditions may differ.
How the values were obtained:
estrogen receptor = assay: Naringin enhancement of BMP-2 effect with estrogen receptor antagonist ICI182,780 in C2C12; format: cell-based; conditions: FIG. 5
Experimental: Intracellular distribution of the estrogen receptor in skeletal myoblasts (C2C12) was determined by immuno-fluorescent staining (Milanesi, L., et al., J Cell Biochem, 2008). Naringin bind to estrogen receptor. Inhibition of estrogen receptor abrogate naringin effect. […] However, the mechanism by which naringin exerts its effects is still unclear. From our prelimianry study, there is evidence that naringin acts via estrogen-receptor (ER)-mediated signaling. Cells were cultured with naringin, in combination with 7α,17β-[9[(4,4,5,5,5-pentafluoropentyl)sulfinyl]nonyl] estra-1,3,5(10)-triene-3,17-diol (ICI182,780), a non-specific ERα and ERβ antagonist.

osteoblasts = conditions: cited from earlier work
MG-63 human osteoblasts = conditions: via activation of the estrogen receptor; cited from earlier work
[1] = Collagen sponge implants, subcutaneous or intramuscular bone induction in rats; format: in vivo, rat
Experimental: Collagen sponge was either blended with naringin solution or covalently crosslinked naringin to collagen sponges. Different doses of BMP-2 were added to the matrices before implantation. Samples were placed intramuscular in thigh muscle. Ten Fisher 344 rats with 180 g in weight were used in this study. Implants were be retrieved 28 days postoperatively. Explants were dissected free of muscle flaps and cut into halves. One half of each explant was used for alkaline phosphatase assay.
Based on these surprising discoveries, the inventors concluded that specific growth factors are needed in addition to naringin for bone to form (FIG. 3).
It will be recognized by one skilled in the art that osteoinductive enhancers are particularly useful in situations where fracture healing is compromised, such as in older people where biosynthetic abilities may be declining, or in situations where not sufficient bone is available for repair. It will also be understood by one of ordinary skill in the art that the addition of growth factors (natural or synthetic) to the naringin containing preparation is essential for osteoinduction.

[2] = tested on: Rat bone marrow derived stem cells; assay: MTT cell proliferation assay; format: cell-based; conditions: 48 h, FIG. 6
Text: MTT was used for cell proliferation assay. MTT [3-(4,5-dimethylthiazol-2-yl)-2,5-diphenyltetrazolium bromide] assay is based on the ability of a mitochondrial dehydrogenase enzyme from viable cells to cleave the tetrazolium rings of the pale yellow MTT and form a dark blue formazan crystals which is largely impermeable to cell membranes, thus resulting in its accumulation within healthy cells. Rat bone marrow derived stem cells were selected by pro-plating methods. Cells used in this study were from passages 3-4. 1×10^7 viable cells/mL in culture media containing 10% FCS were dispensed 100 μL per well in 96 well flat bottomed tissue culture plates. Cells were allow to grow with and without naringin and incubated plates in a humidified CO2 incubator at 37° C. for 48 h. 10 μL of MTT solution were added to all wells of 48 h cultured stem cells and incubate for 4 h at 37° C. After washing cells 3 times with PBS, dark blue dye in cells were dissolved with DMSO. After a few minutes at room temperature read plates using a plate reader in dual wavelength measuring system, at 540 nm and a reference wavelength of 630 nm.
Dose dependent of naringin on bone marrow stem cell proliferation was studied. Cell number was assayed by MTT method. […] (see FIG. 6).

[3] = tested on: Pre-myoblast cell line C2C12; assay: BMP-2 induced ALP activity in C2C12 cell culture; format: cell-based
Experimental: C2C12 was plated in 96-well culture plate with density of 12.5K/well in 10% FBS/DMEM for 5 hours attachment. […] Cells were incubated at 37° C. for another 48 hours. Cell membrane associated ALP activity was tested by standard ALP assay.
C2C12 was plated in 96-well culture plate with density of 12.5K/well in 10% FBS/DMEM for 5 hours attachment. Medium was changed into 1% testing medium. Forty nano-gram of rhBMP-2 in 10 μl was added in every well and 1-1600 nM of naringin was added 10 minutes later.

[4] = DBM with naringin in abdominal muscle pouches of nude rats, ectopic bone formation; format: in vivo; conditions: optimized dose of naringin
Experimental: Osteoinductive (OI) activity of human DBM obtained from Tissue Bank with particle size of 210-750 micrometers was tested in vitro with cell culture methods (Han, 2003). DBM were grouped according their OI score.
Two doses of naringin were used to treat DBM particles before implantation. In 50 mg of DBM, 50 micro liter of 100 micromolar or […] of naringin/PBS solution was added into DBM before implantation.
Muscle pouches were created in abdominal muscles bilaterally in nude rats (weighing 120-150 g each) at 6 sites by sharp and blunt dissection. Subsequently, fifty milligrams of three groups of DBM, two doses of naringin/PBS and with PBS alone, were packed into pouches and closed with a single absorbable suture. Implants were retrieved 28 days postoperatively. The recti abdomini muscles were excised as single muscle flaps and placed in cold PBS moisturized paper towels for radiography. Explants were dissected free of muscle flaps and cut into halves. One half of each explant were used for alkaline phosphatase assay and the other half were fixed in 10% neutral buffered formalin solution for 24 hours and decalcified with a decalcifying solution (Stephens Scientific, Riverdale, N.J.) for 48 hours. The decalcified explants were paraffin-embedded and sectioned with a […] microtome. […]

For `C[C@]12CC[C@@H]3c4ccc(O)cc4C[C@@H](CCCCCCCCC[S+]([O-])CCCC(F)(F)C(F)(F)F)[C@H]3[C@@H]1CC[C@@H]2O` (stereo partly drawn) [ICI, 7α,17β-[9[(4,4,5,5,5-pentafluoropentyl)sulfinyl]nonyl] estra-1,3,5(10)-triene-3,17-diol], which “effect of estrogen receptor antagonist on naringin enhancing BMP-2 effect” value (estrogen receptor) is on record?
The value was “partially block naringin enhancing BMP-2 effect”.

With `O=c1c(-c2ccc(O)cc2)coc2cc(O)ccc12` [daidzein] as the molecule, how does the “increase of viability of osteoblasts” value (osteoblasts; daidzein 2-50 microM, P<0.05) read?
Its value is “about 1.4 fold”.

And the “increase of alkaline phosphatase activity of osteoblasts” value (osteoblasts; daidzein 2-100 microM, P<0.05)?
The value was “about 1.4 fold”.

What about the “increase of osteocalcin synthesis of osteoblasts” value (osteoblasts; daidzein 2-100 microM, P<0.05) of the same molecule?
The value was roughly 2.0 fold.

And the “BMP2 mRNA increase” value (osteoblasts; osteoblasts)?
Its value is 5.0 fold.

What about the BMP2 protein increase (osteoblasts; osteoblasts) of the same molecule?
Its BMP2 protein increase is 7.0 fold.

For `O=c1c(O)c(-c2ccc(O)cc2)oc2cc(O)cc(O)c12` [kaempferol], which “alkaline phosphatase activity in MG-63 human osteoblasts” value (MG-63 human osteoblasts) is on record?
The value was “induced an increase in alkaline phosphatase activity”.

For `C[C@@H]1O[C@@H](O[C@H]2[C@H](Oc3cc(O)c4c(c3)O[C@H](c3ccc(O)cc3)CC4=O)O[C@H](CO)[C@@H](O)[C@@H]2O)[C@H](O)[C@H](O)[C@H]1O` [naringin], which new bone induction ([1]; collagen sponges with naringin plus growth factors (BMP2 and/or BMP7), subcutaneous or intramuscular model) is on record?
Its new bone induction is “did induce bone”.

What about the new bone induction ([1]; naringin alone with collagen carrier, no growth factors, rats) of the same molecule?
The new bone induction was “do not induce new bone; also recorded: not sufficient to induce bone; also recorded: no bone was formed; also recorded: no effect”.

And the “bone marrow stem cell proliferation (MTT)” value [2]?
Its value is “inhibits rat bone marrow cell proliferation”.

And the “naringin concentration with maximal enhancing ALP effect” value ([3]; 40 ng rhBMP-2 per well, 1-1600 nM naringin added 10 minutes later, FIG. 4)?
Its value is 800 nM.

What about the “increase of BMP-2 activity by naringin” value ([3]; BMP-2 plus naringin versus BMP-2 alone, FIG. 3) of the same molecule?
Its value is “four-fold”.

And the “BMP-2 activity in the ALP assay when naringin is added” value ([3]; BMP-2 plus naringin, FIG. 3)?
Its value is 0.4.

What about the “induction of differentiation in osteoprogenitor cells by alkaline phosphatase activity” value ([3]; C2C12, preliminary results) of the same molecule?
Its value is “significant induction of differentiation”.

What about the “effect of naringin on BMP-2 induced ALP activity” value ([3]; naringin added to BMP-2, C2C12, FIG. 3) of the same molecule?
The value was “increases the upregulation of alkaline phosphatase activity by BMP-2; also recorded: dose dependently increase BMP-2 induced ALP activity”.

What about the “effect of naringin by itself on ALP activity / osteoinductivity” value ([3]; naringin alone, no BMP-2, C2C12, 48 hours) of the same molecule?
Its value is “not enough for osteogenic induction; also recorded: no effect on ALP activity; also recorded: no osteoinductivity at all”.

And the “DBM activity in regard of ectopic bone formation potential” value [4]?
The value was “significantly increased”.

With `O=c1c(O)c(-c2ccc(O)c(O)c2)oc2cc(O)cc(O)c12` [quercetin] as the molecule, how does the “alkaline phosphatase activity in MG-63 human osteoblasts” value (MG-63 human osteoblasts) read?
The value was “induced an increase in alkaline phosphatase activity”.

Source: patent US20080241211A1, “DEVICE WHICH ENHANCES THE BIOLOGICAL ACTIVITY OF LOCALLY APPLIED GROWTH FACTORS WITH PARTICULAR EMPHASIS ON THOSE USED FOR BONE REPAIR” (University of Southern California, priority 2007, published 2008)
